According to patent US20110190492A1, “DIAGNOSTIC PROBE FOR CONFORMATION DISEASE” (TOHOKU UNIVERSITY, priority 2005, published 2011):
Read-outs that look alike come from different tables or passages of the source.

How the values were obtained:
[1] = target: T1, amyloid β protein (Homo sapiens, UniProt P05067); assay: Staining test on a brain section of an Alzheimer disease patient (amyloid β protein); type: binding, human (Alzheimer disease patient); settings: 100 μM compound in 50% ethanol, 10 minutes, fluorescence microscopy
T1 construct: from tissue; host or cells: paraffin-embedded human brain sections (temporal lobe, hippocampus) of Alzheimer disease patients
Source text: (§1) (1) Brain specimens at the temporal lobe and the hippocampus of patients to which a definitive diagnosis of Alzheimer disease had been given, and those of normal senile persons were used. The specimens were given by our coworker, Fukushimura Hospital, Longevity Medicine Institute, and we were given their consent of use of the specimens for our study purpose by the bereaved of the patients (Fukushimura Hospital Ethical Review Board Approval No. 20).
(§2) (2) The paraffin-embedded brain tissue was cut into slices having a thickness of 6 μm or 8 μm, and extended and dried on a slide. The paraffin brain section was processed for paraffin removal in xylene twice for 10 minutes, 100% ethanol twice for 5 minutes, 90% ethanol for 5 minutes and running water for 10 minutes in that order.
(§3) (3) For pretreatment prior to the staining treatment with a compound of the invention, the sections were processed for autofluorescence removal with lipofuscin. First, the paraffin-removed sections were dipped in 0.25% KMnO4 solution for 20 minutes. These were washed with PBS, twice for 2 minutes, then dipped in 0.1% K2S2O5/oxalic acid solution for about 5 seconds, and then further washed with PBS, three times for 2 minutes.
(§4) (4) About 150 μl of a 100 μM solution of a compound of the invention dissolved in 50% ethanol was dropwise applied to the section and reacted for 10 minutes. After dipped five times in tap water, the section was entrapped with Fluor Save Reagent (Calbiochem), and analyzed through microscopy with a fluorescence microscope (Nikon, Eclipse 80i). The images were taken with a digital camera (Nikon Dxm 1200F or Photometrics' Cool SNAP ES).

[2] = system: neurofibrillary tangle; assay: Staining test on a brain section of an Alzheimer disease patient (neurofibrillary tangle); type: binding, human (Alzheimer disease patient); settings: 100 μM compound in 50% ethanol, 10 minutes, fluorescence microscopy
Source text: as §1, §2, §3, §4

[3] = system: histidine-requiring Salmonella typhimurium TA100 and TA98 strains; assay: Mutagenicity test (reverse mutation test); type: cell-based
Method: In view of their use, it is desirable that the compounds of the invention have no mutagenicity or have little mutagenicity to a level causing no problem. For investigating the gene mutagenesis of the compounds of the invention, herein carried out was a reverse mutation test with histidine-requiring Salmonella typhimurium TA100 and TA98 strains. Two tests were carried out. One is a test for dose determination test; and the other is for mutagenicity.
The test methods and the mutagenicity of the compounds of the invention are mentioned below. In the dose determination test, six doses of 0.160, 0.800, 4.00, 20.0, 100 and 500 μg/plate (common ratio 5) were tried.
As a result of the dose determination test, when the mutagenicity of the test compound was admitted, then the actual test for mutagenicity was carried out, using the dose capable of giving an accurate dose-reaction curve. When no mutagenicity of the test compound was admitted in the dose determination test and when the growth inhibition of the test cells was admitted therein, then the dose to present the growth inhibition was taken as the maximum dose; and when the growth inhibition was not admitted, then a dose of 5000 μg/plate was taken as the maximum dose. With that, the actual test for mutagenicity was carried out on the level of 6 doses (common ratio 2).
First, a test compound was dissolved or suspended in DMSO, then diluted in order to prepare test compound liquids having a varying concentration.
100 μl of a test compound liquid or a negative control (DMSO) solution was put into a sterilized test tube. Then, for the case in the absence of a metabolic activation system (−S9mix), 500 μl of 0.1 mol/liter sodium-phosphate buffer (pH 7.4) was added to it; and for the case in the presence of a metabolic activation system (+S9mix), 500 μl of S9mix was added to it.
Next, 100 μl of the test strain suspension that had been cultivated with shaking at 37° C. for 8 hours was added to it, and preincubated in a shaking thermostat at 37° C. for 20 minutes. After shaken, 2 ml of top agar was added to it, and the contents were mixed.
Next, the mixture was poured onto a minimal glucose agar plate medium (plate) and spread uniformly thereon, then the top agar was solidified, and the plate was transferred into a thermostat and incubated at 37° C. for 48 hours.
Then, the number of the colonies grown through reverse mutation was counted.
For counting it, […]. After area correction and miss-counting correction, the number of the colonies was computed. When the colony analyzer could not be used owing to the deposition of the test compound or the cell growth inhibition, then the number of the colonies was counted with the naked eye.
In case where the number of the colonies through reverse mutation increased two times or more that of the negative control and where the dose dependency or the reproducibility of the increase was admitted, then the tested sample was decided as positive. When the sample was decided as positive, then the relative activity that indicates the relative comparative value of the intensity of the mutagenicity of the test compound was obtained according to the following formula:
Relative Activity={(number of colonies per plate having the concentration)−(number of colonies per negative control plate)}/the value of concentration (mg/plate).

[4] = target: T2, Amyloid β protein 1-40 (Homo sapiens, UniProt P05067); assay: Fluorescence Congo red method; type: binding; settings: 1 h, compound 10 μM, amyloid β protein 5 μM
T2 construct: Amyloid β protein 1-40 (bought from Peptide Laboratory); purchased Peptide Laboratory
Method: (1) Amyloid β protein 1-40 (bought from Peptide Laboratory) was dissolved in a phosphate buffer (pH 7.4) and left at 37° C. for 4 days.
(2) 50 μl of Congo red dissolved in the buffer was applied to a 96-well microplate (final concentration, 0.1, 0.3, 1 μM).
(3) 100 μl of amyloid β protein was added to it (final concentration 5 μM), and left as such for 30 minutes.
(4) 100 μl of a test compound dissolved in the buffer was added to it (final concentration, 10 and left as such for 60 minutes.
(5) Using a fluorescence microplate reader (Spectra Max 190 by Molecular Device), the sample was analyzed at the optimum exciting wavelength and the test wavelength that had been previously determined.
(6) The fluorescence intensity in the presence of the test compound, amyloid β protein and Congo red is represented by A; that in the presence of the test compound and Congo red is by B; that in the presence of the test compound and amyloid β protein is by C; and that in the presence of only the test compound is by D. The β structure recognition of the test compound is computed according to the following formula:
β structure recognition (%) of test compound={(A−B)/(C−D)}×100.

[5] = Acute toxicity test, intravenous administration to mice; type: in vivo; settings: mice observed for 7 days
Method: The compounds of the invention were tested for their acute toxicity through intravenous administration thereof to mice. Four Crj:CD1 male mice formed one test group, and some test groups of those mice were used (the mean body weight of the mice of each group was from 31 to 32 g). A test compound was dissolved in a mixture of 1 N HCl, polyethylene glycol-400 and distilled water, or dissolved in DMSO, and then diluted with distilled water. This was administered to each mouse via its tail vein.

[6] = Brain permeability of [^18F]-labeled compound in mice; type: in vivo, male ICR mice; settings: 2 minutes after intravenous administration, radioactivity
Method: The partitioning HPLC fraction containing [^18F]THK525, [^18F]THK702, [^18F]THK727 or [^18F]THK763, obtained through labeling production, was diluted with distilled water (about 20 mL), then loaded in Sep-Pak tC18 cartridge (by waters). The cartridge was washed with distilled water (5 to 10 mL), and then the labeled compound was eluted with EtOH (3 to 5 mL). A suitable amount of 5% Polysorbate 80/ethanol solution was added to the EtOH eluate, and the solvent was evaporated away with heating at 80° C. with a rotary evaporator. Thus obtained, a mixture of the labeled compound and Polysorbate 80 was dissolved in physiological saline, thereby preparing a labeled compound-containing physiological saline. Thus prepared, the radiochemical purity of the chemical solution was 95% or more.
[^18F]THK525, [^18F]THK702, [^18F]THK727 or […] to male ICR mice (6 to 7 weeks-age) via their tail vein. From the radioactivity deposition in the brain after 2 and 30 minutes, the brain permeability of the labeled compound was assessed. The radiochemical purity of the labeled compound-containing physiological saline used was at least 95%, and the relative radioactivity thereof was from 18.5 to 148 GBq/μmol; and from 1.11 to 2.22 MBq of the labeled compound was administered to one mouse. Regarding the assessment of the radioactivity deposition, the proportion of the radioactivity per the unit weight of the sample tissue to the overall radioactivity given to the test animal (% injected dose/g of tissue; % ID/g) was taken as the index. For measuring the radioactivity, used was a gamma counter (1480 WIZARD, by Perkin Elmer). The experiment protocol was as follows: A labeled compound was administered to mice via their tail vein. After 2 and 30 minutes, the cervical spine of the mouse was dislocated under ether anesthesia. Immediately, the blood was collected from its heart, and the whole brain (including cerebellum and brainstem) was taken out. The radioactivity and the tissue weight of each sample were measured, and from the data, % ID/g was computed.

T2 sequence (P05067 672-711): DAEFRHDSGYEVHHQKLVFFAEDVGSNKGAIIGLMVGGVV
T1 sequence (P05067 672-713 limits assumed): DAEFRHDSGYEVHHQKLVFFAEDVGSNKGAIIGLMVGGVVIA

| SMILES | binding to amyloid β protein in the brain section of an Alzheimer disease patient [1] | binding to neurofibrillary tangle in the brain section of an Alzheimer disease patient [2] | Maximum Permissible Dose [5] | Brain Permeability of [^18F]-labeled Compound: Brain [6] | Brain Permeability of [^18F]-labeled Compound: Plasma [6] | other results |
| --- | --- | --- | --- | --- | --- | --- |
| CN1C=CC(=C/C=C2\C=Nc3ccccc32)C=C1 [THK-185, 3-[2-(1-methyl-1H-pyridin-4-ylidene)-ethylidene]-3H-indole] | bound to the amyloid β protein | bound to the amyloid β protein and the neurofibrillary tangle |  |  |  |  |
| CN(C)c1ccc(-c2nnc(-c3sc4ccccc4c3Cl)o2)cc1 [THK-258, [4-[5-(3-chloro-benzo[b]thiophen-2-yl)-[1,3,4]oxadiazol-2-yl]-phenyl]-dimethylamine] | bound to the amyloid β protein | bound to the amyloid β protein and the neurofibrillary tangle |  |  |  |  |
| CN1C=CC(=CC=C2C=CC(=O)C=C2)C=C1 [THK-317, 4-[2-(1-methyl-1H-pyridin-4-ylidene)-ethylidene]-cyclohexa-2,5-dienone] | bound to the amyloid β protein | bound to the amyloid β protein and the neurofibrillary tangle |  |  |  |  |
| OCC(CF)COc1ccc2nc(/C=C/c3cnc(N4CCOCC4)s3)oc2c1 (stereo not drawn) [THK-727, 2-fluoromethyl-3-[2-[2-(2-morpholin--yl-thiazol-5-yl)-vinyl]-benzoxazol-6-yloxy]-propan-1-ol] | The white space arrow indicates amyloid β protein | the white space arrow head indicates neurofibrillary tangle | ≧10 mg/kg |  |  | relative activity ([3]; irrespective of the absence or presence of S9mix): minus; activity at 10 µM ([4]; Congo red 0.1 μM, read-out: Binding Percentage of Compound in the presence of 0.1 μM CR): 73.6%; activity at 10 µM ([4]; Congo red 0.3 μM, read-out: Binding Percentage of Compound in the presence of 0.3 μM CR): 35%; activity at 10 µM ([4]; Congo red 1 μM, read-out: Binding Percentage of Compound in the presence of 1 μM CR): 3.1% |
| CNc1ncc(/C=C/c2nc3ccc(OC(CO)CF)cc3o2)s1 (stereo not drawn) [THK-761, (E)-6-[(1-fluoromethyl-2-hydroxy)ethoxy]-2-[2-[2-methylaminothiazol-5-yl]ethenyl]-benzoxazole] | The white space arrow indicates amyloid β protein |  | ≧10 mg/kg |  |  | relative activity ([3]; in the presence of S9mix): weak |
| CN(C)c1ncc(/C=C/c2nc3ccc(OC(CO)CF)cc3o2)s1 (stereo not drawn) [THK-763, (E)-6-[(1-fluoromethyl-2-hydroxy)ethoxy]-2-[2-[2-dimethylamino-thiazol-5-yl]ethenyl]benzoxazole] | The white space arrow indicates amyloid β protein |  | ≧10 mg/kg |  |  | relative activity ([3]; in the presence of S9mix): weak |
| FCCOc1ccc2nc(/C=C/c3cnc(N4CCOCC4)s3)oc2c1 [[^18F]THK-525] |  |  |  | 4.7 % ID/g or ml | 2.8 % ID/g or ml |  |
| OCC(CF)Oc1ccc2nc(/C=C/c3cnc(N4CCOCC4)s3)oc2c1 (stereo not drawn) [[^18F]THK-702] |  |  |  | 4.2 % ID/g or ml | 2.3 % ID/g or ml |  |
| OCC(CF)COc1ccc2nc(/C=C/c3cnc(N4CCOCC4)s3)oc2c1 (stereo not drawn) [[^18F]THK-727] |  |  |  | 4.1 % ID/g or ml | 2.9 % ID/g or ml |  |
| CN(C)c1ncc(/C=C/c2nc3ccc(OC(CO)CF)cc3o2)s1 (stereo not drawn) [[^18F]THK-763] |  |  |  | 4.6 % ID/g or ml | 3.7 % ID/g or ml |  |
